Reference: ChEMBL document CHEMBL1201862, “PubChem BioAssay data set” (2004)
Calls of active or inactive are those of the source.

Assays:
Paired box protein Pax-8 = Paired box protein Pax-8 (Homo sapiens, UniProt Q06710); assay: PAX8 transcriptional activity inhibition in RMG-I – RMG-I cells, luciferase, cherry-pick, dose response (AID 687027); type: functional, cell-based;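 also: luciferase reporter driven by Pax8 target thyroperoxidase promoter measured by SteadyGlo luminescence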
[1] = general cell-killing toxicity readout – plate reader, dry powder samples, cytotoxicity control for PAX8 inhibitor project, dose response (AID 743021); type: functional, cell-based
[2] = viability of uninfected HEp-2 cells – cell-based, HTS, cytotoxicity control for RSV inhibitor project, dose response (AID 2410); type: functional; details: human respiratory syncytial virus
[3] = target: T1, Voltage-gated N-type calcium channel alpha-1B subunit/Amyloid beta A4 precursor protein-binding family A member 1 (Homo sapiens, UniProt Q00975+Q02410); type: protein assay
[4] = target: T1, Voltage-gated N-type calcium channel alpha-1B subunit/Amyloid beta A4 precursor protein-binding family A member 1; type: protein assay; remark: listed apart in the source
[5] = target: T2, Calpain-2 catalytic subunit (Sus scrofa, UniProt P43367); assay: m-calpain protease blockers, concentration series – biochemical, fluorogenic peptide substrate, dose response (AID 1420); type: functional
T2 sequence (P43367 whole entry): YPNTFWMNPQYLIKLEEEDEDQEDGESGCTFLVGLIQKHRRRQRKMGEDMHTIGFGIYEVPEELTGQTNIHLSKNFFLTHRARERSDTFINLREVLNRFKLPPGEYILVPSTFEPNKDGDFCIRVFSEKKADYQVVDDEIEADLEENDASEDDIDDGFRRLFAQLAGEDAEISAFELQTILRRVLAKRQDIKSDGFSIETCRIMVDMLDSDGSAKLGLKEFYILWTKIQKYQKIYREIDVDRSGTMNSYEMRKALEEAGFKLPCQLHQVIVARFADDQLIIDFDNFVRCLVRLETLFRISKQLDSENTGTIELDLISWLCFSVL

Streptokinase A = target: T3, Streptokinase A (Streptococcus pyogenes serotype M1, UniProt P10520); assay: viability-normalized secreted streptokinase activity reduction – plasminogen activation absorbance, OD405, dose response (AID 1914); type: functional, Streptococcus pyogenes M1 GAS;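 also: secreted streptokinase activity via plasminogen activation per viability signal from cell pellet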
T3 sequence (P10520 whole entry): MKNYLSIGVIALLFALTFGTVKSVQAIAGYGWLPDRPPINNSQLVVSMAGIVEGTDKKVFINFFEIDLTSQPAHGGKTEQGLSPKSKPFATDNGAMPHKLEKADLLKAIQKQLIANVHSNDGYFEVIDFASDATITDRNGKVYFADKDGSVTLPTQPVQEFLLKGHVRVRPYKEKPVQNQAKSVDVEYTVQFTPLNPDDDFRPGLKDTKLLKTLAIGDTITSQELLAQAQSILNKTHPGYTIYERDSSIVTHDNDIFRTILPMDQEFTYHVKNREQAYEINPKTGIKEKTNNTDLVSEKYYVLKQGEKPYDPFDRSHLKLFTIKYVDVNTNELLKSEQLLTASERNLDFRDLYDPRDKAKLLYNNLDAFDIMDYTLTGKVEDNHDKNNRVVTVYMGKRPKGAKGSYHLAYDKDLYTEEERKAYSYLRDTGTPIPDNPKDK

[6] = system: Streptococcus sp. 'group A'; assay: Streptococcus pyogenes SK(-)GAS viability under kanamycin – luminescence, BacTiterGlo, confirmation, counter-screen for streptokinase expression inhibitor project, dose response (AID 1900); type: functional, organism-based
Streptococcus = assay: GAS UMAA2166 growth inhibition – luminescence, BacTiterGlo, counter-screen for streptokinase expression inhibitor project, dose response (AID 1915); type: functional, organism-based;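 also: potency for reduction of bacterial viability or growth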
[7] = viability loss in THP-1 monocytes – THP-1 cells, cytotoxicity control for Vif-APOBEC3G degradation inhibitor project, dose response (AID 1117359); type: functional; details: THP-1
Fatty acid synthase [8] = target: T4, Fatty acid synthase (Homo sapiens, UniProt P49327); assay: inhibition of human FAS-TE enzyme activity – biochemical, kinetic fluorescence intensity, dose response (AID 624326); type: functional;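 also: rate of fluorescence rise from hydrolysis of a fluorogenic O-methyl fluorescein ester substrate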
Fatty acid synthase [9] = target: T4, Fatty acid synthase; assay: inhibition of human FAS-TE enzyme activity – biochemical, endpoint fluorescence intensity, uHTS hits, dose response (AID 624327); type: functional;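 also: fluorescence from hydrolysis of an O-methyl fluorescein acyl ester substrate by the enzyme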
Large T antigen = Large T antigen (Simian virus 40, UniProt P03070); type: functional, Betapolyomavirus macacae;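 also: Confirmatory-stage PubChem screen for compounds that inhibit SV40 T antigen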
[10] = reduced cellular PGC1a acetyl-lysine signal – cell-based, cherry-picked samples, dose response (AID 720514); type: functional;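 also: potency may reflect raised or lowered acetylation signal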

T4 sequence (P49327 whole entry): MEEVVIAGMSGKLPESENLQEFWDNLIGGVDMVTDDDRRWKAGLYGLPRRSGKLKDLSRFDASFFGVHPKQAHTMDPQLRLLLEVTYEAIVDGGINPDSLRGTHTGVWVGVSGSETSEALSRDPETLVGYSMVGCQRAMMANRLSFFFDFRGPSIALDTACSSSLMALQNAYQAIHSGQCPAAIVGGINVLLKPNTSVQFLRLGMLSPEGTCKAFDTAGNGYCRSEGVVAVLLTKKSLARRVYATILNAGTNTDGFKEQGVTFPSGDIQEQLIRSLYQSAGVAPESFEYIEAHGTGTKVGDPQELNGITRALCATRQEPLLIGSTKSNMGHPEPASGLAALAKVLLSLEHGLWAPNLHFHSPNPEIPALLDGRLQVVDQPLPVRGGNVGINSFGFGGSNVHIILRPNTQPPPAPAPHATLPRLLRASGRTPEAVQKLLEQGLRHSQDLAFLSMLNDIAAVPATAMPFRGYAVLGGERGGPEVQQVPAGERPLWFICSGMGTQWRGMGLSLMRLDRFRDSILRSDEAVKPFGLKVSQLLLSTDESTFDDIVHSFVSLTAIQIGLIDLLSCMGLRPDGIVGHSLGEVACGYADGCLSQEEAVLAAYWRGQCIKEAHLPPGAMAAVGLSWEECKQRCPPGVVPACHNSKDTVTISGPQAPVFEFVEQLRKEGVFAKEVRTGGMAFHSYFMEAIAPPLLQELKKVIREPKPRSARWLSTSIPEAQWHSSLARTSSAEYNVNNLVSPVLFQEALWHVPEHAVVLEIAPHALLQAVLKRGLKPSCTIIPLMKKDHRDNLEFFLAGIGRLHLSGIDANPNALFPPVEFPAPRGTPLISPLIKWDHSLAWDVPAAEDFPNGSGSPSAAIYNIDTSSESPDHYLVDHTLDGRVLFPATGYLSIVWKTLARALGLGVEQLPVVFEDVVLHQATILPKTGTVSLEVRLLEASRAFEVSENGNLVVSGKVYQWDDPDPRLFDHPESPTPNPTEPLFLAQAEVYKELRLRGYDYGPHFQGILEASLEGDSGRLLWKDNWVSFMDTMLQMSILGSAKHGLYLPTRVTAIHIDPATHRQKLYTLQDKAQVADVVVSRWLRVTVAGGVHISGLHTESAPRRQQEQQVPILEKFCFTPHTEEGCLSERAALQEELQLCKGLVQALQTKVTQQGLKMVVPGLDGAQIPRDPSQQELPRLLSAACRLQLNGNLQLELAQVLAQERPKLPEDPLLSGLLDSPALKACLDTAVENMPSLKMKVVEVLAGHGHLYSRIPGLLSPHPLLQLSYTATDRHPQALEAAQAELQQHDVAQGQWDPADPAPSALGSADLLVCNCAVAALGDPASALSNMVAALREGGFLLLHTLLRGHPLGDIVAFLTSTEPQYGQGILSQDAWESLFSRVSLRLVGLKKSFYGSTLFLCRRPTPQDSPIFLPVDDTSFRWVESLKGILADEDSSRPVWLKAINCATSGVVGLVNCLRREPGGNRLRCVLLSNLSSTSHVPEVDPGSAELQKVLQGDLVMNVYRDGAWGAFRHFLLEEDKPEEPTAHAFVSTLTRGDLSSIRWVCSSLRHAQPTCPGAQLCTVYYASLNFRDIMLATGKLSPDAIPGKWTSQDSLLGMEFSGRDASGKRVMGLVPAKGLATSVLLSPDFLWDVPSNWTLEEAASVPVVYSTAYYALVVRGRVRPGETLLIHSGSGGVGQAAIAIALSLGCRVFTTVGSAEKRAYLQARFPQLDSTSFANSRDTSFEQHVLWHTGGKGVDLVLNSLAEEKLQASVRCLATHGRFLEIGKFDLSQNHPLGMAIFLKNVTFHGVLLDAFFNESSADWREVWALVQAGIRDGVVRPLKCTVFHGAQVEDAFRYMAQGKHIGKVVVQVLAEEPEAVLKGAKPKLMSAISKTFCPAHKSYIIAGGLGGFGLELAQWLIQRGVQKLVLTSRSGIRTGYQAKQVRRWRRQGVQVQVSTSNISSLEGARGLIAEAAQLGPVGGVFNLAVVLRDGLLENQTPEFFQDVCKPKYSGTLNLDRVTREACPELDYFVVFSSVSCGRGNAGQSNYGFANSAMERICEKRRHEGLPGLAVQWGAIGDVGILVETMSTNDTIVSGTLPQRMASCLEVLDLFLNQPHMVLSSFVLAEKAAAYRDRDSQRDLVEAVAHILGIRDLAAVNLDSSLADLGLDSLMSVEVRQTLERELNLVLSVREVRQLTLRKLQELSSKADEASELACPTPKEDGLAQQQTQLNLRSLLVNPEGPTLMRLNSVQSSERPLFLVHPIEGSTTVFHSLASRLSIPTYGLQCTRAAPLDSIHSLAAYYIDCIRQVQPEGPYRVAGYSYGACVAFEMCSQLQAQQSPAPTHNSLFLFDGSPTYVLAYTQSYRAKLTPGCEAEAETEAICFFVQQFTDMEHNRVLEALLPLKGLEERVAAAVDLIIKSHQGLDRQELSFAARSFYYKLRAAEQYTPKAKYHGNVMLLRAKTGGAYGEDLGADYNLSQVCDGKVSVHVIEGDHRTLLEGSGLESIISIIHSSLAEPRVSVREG
Sequence of Paired box protein Pax-8 (Q06710 whole entry): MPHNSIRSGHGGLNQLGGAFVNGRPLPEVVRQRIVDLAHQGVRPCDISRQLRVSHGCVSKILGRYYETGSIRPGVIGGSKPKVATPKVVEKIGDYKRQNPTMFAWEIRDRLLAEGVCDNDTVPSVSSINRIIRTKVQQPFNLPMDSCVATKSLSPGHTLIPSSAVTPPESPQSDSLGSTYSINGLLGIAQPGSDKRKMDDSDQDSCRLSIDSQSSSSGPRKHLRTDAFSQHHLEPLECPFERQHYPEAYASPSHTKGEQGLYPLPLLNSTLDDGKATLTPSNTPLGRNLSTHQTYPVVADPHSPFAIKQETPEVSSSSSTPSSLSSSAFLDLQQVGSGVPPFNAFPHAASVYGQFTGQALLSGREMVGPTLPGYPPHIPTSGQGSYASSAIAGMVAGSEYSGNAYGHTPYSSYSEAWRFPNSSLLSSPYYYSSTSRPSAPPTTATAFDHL
Sequence of Large T antigen (P03070 whole entry): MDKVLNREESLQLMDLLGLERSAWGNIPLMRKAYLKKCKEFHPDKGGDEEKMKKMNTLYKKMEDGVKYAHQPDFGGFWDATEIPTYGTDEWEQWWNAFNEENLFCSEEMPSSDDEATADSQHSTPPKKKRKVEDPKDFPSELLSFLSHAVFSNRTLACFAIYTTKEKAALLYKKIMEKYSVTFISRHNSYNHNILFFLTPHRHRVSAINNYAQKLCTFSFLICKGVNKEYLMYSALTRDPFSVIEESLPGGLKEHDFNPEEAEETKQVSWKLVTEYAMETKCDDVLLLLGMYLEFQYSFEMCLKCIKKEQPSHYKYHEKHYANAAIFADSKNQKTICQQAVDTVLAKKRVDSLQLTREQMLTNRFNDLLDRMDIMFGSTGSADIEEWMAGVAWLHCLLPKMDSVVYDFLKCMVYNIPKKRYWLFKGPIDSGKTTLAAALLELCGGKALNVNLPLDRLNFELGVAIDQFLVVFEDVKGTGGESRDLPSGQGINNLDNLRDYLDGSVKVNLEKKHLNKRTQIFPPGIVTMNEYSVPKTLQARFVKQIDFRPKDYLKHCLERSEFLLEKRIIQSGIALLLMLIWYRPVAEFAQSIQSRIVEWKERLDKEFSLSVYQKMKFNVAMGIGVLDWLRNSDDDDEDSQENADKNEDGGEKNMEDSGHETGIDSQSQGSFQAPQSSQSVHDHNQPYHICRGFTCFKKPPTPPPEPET

With `CC1=C(N2CC2)C(=O)C(CO)=C(N2CC2)C1=O` as the compound, how does the AC50 (Paired box protein Pax-8) read?
The AC50 was < 0.26 µM (active).

What about the AC50 [1] of the same compound?
Its AC50 is 14.8 µM (active).

With `O=S(=O)(/C=C/c1ccccc1)N1CCC(c2nc(O)c3nnn(Cc4ccc(F)cc4)c3n2)CC1` as the compound, how does the CC50 [2] read?
Its CC50 is 19.1 µM (active).

What about the IC50 (cells) of the same compound?
The IC50 was 12 µM (active).

Which IC50 [3] does the source give for `Cc1c(Cc2ccccc2)sc(NC(=O)c2ccco2)c1C(N)=O` here?
The IC50 was > 50 µM (inactive).

What about the IC50 [4] of the same compound?
Its IC50 is 9.09 µM (active).

For `Cc1ccc2c(CC(=O)Nc3cccc(S(=O)(=O)N4CCOCC4)c3)coc2c1`, which IC50 [5] is on record?
Its IC50 is 25.9 µM (not active).

Which EC50 (Streptokinase A) does the source give for `C=CCN1C(=O)NC(=O)/C(=C(/CC)Nc2ccc(N(C)C)cc2)C1=O` here?
The EC50 was > 150 µM (not active).

And the EC50 [6]?
Its EC50 is 5.65 µM (active).

And the EC50 (Streptococcus)?
Its EC50 is 9.73 µM (active).

What about the CC50 [7] of the same compound?
The CC50 was > 40 µM (active).

Which IC50 [5] does the source give for `Cc1nc(SCC(=O)Nc2ccccc2)c2oc3ccccc3c2n1` here?
The IC50 was > 50 µM (not active).

Which results are given for `Cc1ccc([N+](=O)[O-])cc1NC(=O)C(Sc1ccccc1)c1ccccc1` (stereo not drawn)?
IC50 [5]: > 50 µM (not active); IC50 (Fatty acid synthase [8]): 1.73 µM (active); IC50 (Fatty acid synthase [9]): 2.24 µM (active)

Which results are given for `CCN1C(=O)/C(=C\c2ccc([N+](=O)[O-])s2)C(=O)NC1=S`?
IC50 (Large T antigen): 91.6 µM (active); CC50 [7]: > 40 µM (active)

For `CC[C@H](C)[C@H](NC(=O)c1ccc(Cl)cc1)C(=O)OCC(=O)c1ccc2c(c1)NC(=O)CO2`, which AC50 [10] is on record?
Its AC50 is 6.76 µM (active).
